According to the NIST ThermoML archive (doi:10.1021/je800157v):

Experiment: xn = mol fraction of the nth substance listed
Conditions: 101 kPa, Liquid

ClC(Cl)Cl [trichloromethane] + CCC(C)O
mass density [kg/m3]
Conditions	303.15 K	308.15 K	313.15 K
x2 = 0	1469.61	1460.03	1450.41
x2 = 0.0514	1427.86	1418.55	1409.22
x2 = 0.1045	1386.31	1377.26	1368.2
x2 = 0.1518	1350.44	1341.17	1332.78
x2 = 0.1962	1317.48	1308.89	1300.27
x2 = 0.2512	1277.49	1269.19	1260.86
x2 = 0.2998	1242.86	1234.82	1226.74
x2 = 0.3507	1207.39	1199.64	1191.86
x2 = 0.3995	1173.96	1166.47	1158.94
x2 = 0.4502	1139.78	1132.56	1125.28
x2 = 0.4978	1108.17	1101.2	1094.2
x2 = 0.546	1076.68	1069.96	1063.21
x2 = 0.6008	1041.47	1035.03	1028.55
x2 = 0.6498	1010.48	1004.3	998.07
x2 = 0.7008	978.52	972.61	966.65
x2 = 0.7446	951.51	945.82	940.07
x2 = 0.7984	918.6	913.19	907.74
x2 = 0.8507	886.97	881.84	876.65
x2 = 0.9	857.51	852.65	847.72
x2 = 0.9486	828.64	824.05	819.39
